Assay results taken from PMC8533206 (Antioxidants, 2021).
Values joined by “and” are separate entries in the source; they are usually repeats but may differ in a detail not shown here. Identical values can stand only once. “Also recorded” adds a separate entry of the source.

How the values were obtained:
PC12 cells [1] = experiment: Cytotoxicity over PC12 cells (MTT assay); format: cell-based; settings: 24 h
Protocol: PC12 cells were routinely maintained in RPMI-1640 media containing 100 IU/mL penicillin, and 100 μg/mL streptomycin supplemented by 10% heat-inactivated HS, 5% FBS in a humidified incubator containing 5% CO2 and 95% air at 37 °C [25]. The cell culture media was changed every two days. To perform experiments, cells were plated on poly-D-lysine/laminin-coated 24-well plates at a density of 3 × 10^5 cells/well and incubated for at least 24 h to allow cell adhesion.
To examine the effects of the test compounds on cell survival, cells were incubated in low serum media (1% HS, 1% FBS, 100 IU/mL penicillin, and 100 μg/mL streptomycin) with test compounds at the concentrations of 10 and 30 μM or an equivalent volume of vehicle control (DMSO at the final concentration of 0.3%) for 24 h. The media containing test compounds was sonicated at room temperature for 30 min to assure adequate dissolution in the media. To assess the protective effects of the test compounds on 6-OHDA- or rotenone-induced cell death in PC12 cells, cells were pre-treated with the compounds or rasagiline for 4 h. The pre-treated cells were then exposed to 6-OHDA (50 μM) or rotenone (1 μM) for 24 h.
After the desired treatment, cell viability was determined by MTT assay as described previously, with slight modification. Briefly, MTT was added to the cells at the final concentration of 0.5 mg/mL, followed by incubation for 3 h at 37 °C. The supernatants were carefully removed, and then 300 μL of DMSO was added to each well to dissolve formazan precipitate. The absorbance of the dissolved solution was measured at 550 nm using a microplate reader (SpectraMax M2e, Molecular Devices, Sunnyvale, CA, USA). The cell viability was presented as the percentage of the absorbance measured in the vehicle-treated control cells. […] Inhibition (%) = 100 × (Abssample − Abs6-OHDA or rotenone)/(Abscontrol − Abs6-OHDA or rotenone)

PC12 cells [2] = experiment: Rotenone-induced ROS generation in PC12 cells (H2-DCFDA); format: cell-based, rat; settings: 10 μM compound, rotenone 1 μM 20 h
Protocol: (§1) The involvement of oxidative stress in the observed reduction in cell viability was investigated using the fluorescent dye H2-DCFDA as described previously. Briefly, cells were loaded with 10 μM H2-DCFDA for 30 min at 37 °C. Subsequently, cells were exposed for 4 h to 10 μM of test compounds followed by the addition of 50 μM 6-OHDA or 1 μM rotenone for 20 h, and fluorescence was measured spectrophotometrically at 488/520 nm in a microplate reader (SpectraMax M2e). N-acetylcysteine (NAC, 5 mM) was included as a […] control for oxidative stress.

[3] = molecular target: T1, Human recombinant MAO-B (hMAO-B) (Homo sapiens, UniProt P27338); experiment: MAO-B inhibition assay (Amplex Red fluorescence, benzylamine substrate); format: biochemical; settings: for IC50: five doses 10, 1, 0.1, 0.01, 0.001 μM, triplicate; for Selectivity Index (SI): ratio of IC50 (MAO-A)/IC50 (MAO-B); for inhibition at 10 µM / % Inhibition of MAO-B at 10 µM: single dose 10 µM
T1 construct: purchased Sigma-Aldrich; host or cells: insect cells
T1 sequence (P27338 1-520): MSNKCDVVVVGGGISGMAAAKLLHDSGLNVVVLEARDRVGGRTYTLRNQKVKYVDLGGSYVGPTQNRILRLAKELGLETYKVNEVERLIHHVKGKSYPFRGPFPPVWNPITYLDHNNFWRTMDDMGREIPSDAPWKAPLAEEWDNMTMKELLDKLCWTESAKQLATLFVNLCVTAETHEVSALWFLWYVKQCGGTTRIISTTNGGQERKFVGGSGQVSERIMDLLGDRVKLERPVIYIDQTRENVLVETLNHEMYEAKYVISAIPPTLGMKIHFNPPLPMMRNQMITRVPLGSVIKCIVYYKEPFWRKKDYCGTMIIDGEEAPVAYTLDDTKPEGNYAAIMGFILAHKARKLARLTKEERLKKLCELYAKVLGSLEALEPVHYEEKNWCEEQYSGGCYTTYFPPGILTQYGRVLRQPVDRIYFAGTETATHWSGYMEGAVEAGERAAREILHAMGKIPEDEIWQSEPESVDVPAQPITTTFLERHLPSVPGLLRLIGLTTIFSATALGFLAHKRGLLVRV
Protocol: The biological evaluation of the tested compounds over both MAO-A and MAO-B was performed following the previously reported method. The MAO activity was measured in relative fluorescence units (RFU) evoked by peroxidase-catalyzed oxidation of Amplex Red® to resorufin, in which H2O2 generated by MAO reaction was used as the electron donor. Human recombinant MAO-A (hMAO-A) and MAO-B (hMAO-B) enzymes expressed in insect cells were obtained from Sigma-Aldrich. The 2 μL of test compound in DMSO (final concentration: 1–10 μM) was treated with 98 μL of hMAO enzyme solution in 50 mM sodium phosphate buffer (pH 7.4, final protein amounts: ~1.25 μg protein/well for MAO-A and ~2.5 μg protein/well for MAO-B) on 96-well black plate and incubated for 15 min at 37 °C. Then, 100 μL of reaction working solution which is a mixed solution of 400 μM Amplex Red® (Cayman, final concentration: 200 μM), 2 U/mL horseradish peroxidase (Sigma-Aldrich, final concentration: 1 U/mL) and 2 mM substrate (p-tyramine for MAO-A, benzylamine for MAO-B, Sigma-Aldrich, final concentration: 1 mM) in 50 mM sodium phosphate buffer (pH 7.4) were added and incubated for 20 min at 37 °C in the dark. The fluorescent intensity was quantified using a microplate reader (SpectraMax®i3, Molecular Device) with an excitation at 545 nm and an emission at 590 nm. The 50% inhibitory concentrations (IC50) of compounds were determined as the mean ± S.E.M. in triplicate from the dose-response inhibition curves using SigmaPlot® 13.0 (Systat Software Inc., San Jose, CA, USA).

PC12 cells [4] = experiment: 6-OHDA-induced ROS generation in PC12 cells (H2-DCFDA); format: cell-based, rat; settings: 10 μM compound, 6-OHDA 50 μM 20 h
Protocol: as §1

[5] = DPPH radical scavenging activity (cell-free); settings: for DPPH radical scavenging activity (in words): cell-free, DPPH 150 µM
Protocol: DPPH radical scavenging activities of test compounds were assessed as previously described. Briefly, the reaction mixture containing desired concentrations of test compounds and DPPH radical solution (150 µM) prepared in 95% methanol was incubated for 30 min at 37 °C. The absorbance of the mixture was measured at 520 nm in a microplate reader (SpectraMax M2e). The radical scavenging activity was calculated using the following equation:DPPH radical scavenging activity (%) = 100 × (Abscontrol − Abssample)/Abscontrol where Abscontrol and Abssample represent the absorbances in the absence and in the presence of test compounds, respectively.

Structure (SMILES) | Cytotoxic effect on PC12 cell viability (PC12 cells [1]; 10 μM) | Effect on rotenone-induced intracellular ROS production (PC12 cells [2]) | IC50 [3] | Selectivity Index (SI) [3] | inhibition at 10 µM [3] [%] | Effect on 6-OHDA-induced ROS generation (PC12 cells [4]) | DPPH radical scavenging activity (in words) [5] | % Inhibition of MAO-B at 10 µM [3] [%] | Cytotoxic effect on PC12 cell viability (PC12 cells [1]; 30 μM) | Maximal DPPH radical scavenging effect ([5]; 30 and 100 µM)
COC(=O)c1ccc2c(ccn2C(=O)c2ccc(Cl)c(Cl)c2)c1 [Compound 7b, Methyl 1-(3,4-dichlorobenzoyl)-1H-indole-5-carboxylate] | did not show any cytotoxic effects | attenuated | 330 nM and 328 nM | >305 | 84.1 | significantly decreased | mild DPPH radical scavenging activities |  |  | 
O=C(Nc1ccc(I)cc1)c1ccc2[nH]ccc2c1 [Compound 8a, N-(4-iodophenyl)-1H-indole-5-carboxamide] | did not show any cytotoxic effects | not effective | 27.4 nM | >3649 | > 99 | not effective |  | 99.3 ± 0.0 |  | 
O=C(Nc1ccc(Br)cc1)c1ccc2[nH]ccc2c1 [Compound 8b, N-(4-bromophenyl)-1H-indole-5-carboxamide] | did not show any cytotoxic effects | attenuated | 30 nM and 30.5 nM | >3278 | > 99 | significantly decreased | mild DPPH radical scavenging activity; also recorded: mild DPPH radical scavenging activities | 99.4 ± 0.0 | significant reduction in cell viability | approximately 10%
O=C(Nc1ccc2c(c1)OCO2)c1ccc2[nH]ccc2c1 [Compound 8e, N-(benzo[d][1,3]dioxol-5-yl)-1H-indole-5-carboxamide] | did not show any cytotoxic effects | attenuated | 450 nM and 453 nM | >220 | 89.6 ± 0.4 | significantly decreased | mild DPPH radical scavenging activities |  |  | 
